Experimental findings from ChEMBL document CHEMBL3045705, “Thermal, kinetic, spectroscopic studies and anti-microbial, anti-tuberculosis, anti-oxidant properties of clioquinol and benzo-coumarin derivatives mixed complexes with copper ion” (2013) are described below.

Converted amounts (≈) assume the structure as drawn. Where only a bound is given, the exact number is not on record here.

Format in all cases: functional
Assay [1] relates to Mycobacterium tuberculosis. The experiment in a line: Growth inhibition of Mycobacterium tuberculosis H37Rv MTCC 200 at MIC after 28 days by micro dilution anti-microbial susceptibility test.
Assay [2] relates to Mycobacterium tuberculosis. Description: Antitubercular activity against Mycobacterium tuberculosis H37Rv MTCC 200 after 28 days by micro dilution anti-microbial susceptibility test. The conditions noted are these: H37Rv MTCC 200, 672 h.
In another assay the test system is Aspergillus niger. Description: Antifungal activity against Aspergillus niger ATCC 64958 after 16 to 18 hr by Kirby-Bauer disc diffusion method. For orientation: A growth-free zone around the sample is the usual read-out of agar diffusion tests.
The next assay concerns Candida albicans. Description: Antifungal activity against Candida albicans ATCC 66027 after 16 to 18 hr by Kirby-Bauer disk diffusion method.
Another assay deals with Bacillus subtilis. Description: Antibacterial activity against Bacillus subtilis ATCC 11774 after 16 to 18 hr by Kirby-Bauer disk diffusion method.
A further assay concerns Streptococcus pyogenes. Description: Antibacterial activity against Streptococcus pyogenes ATCC 12384 after 16 to 18 hr by Kirby-Bauer disc diffusion method.
Another assay deals with Pseudomonas aeruginosa. The experiment in a line: Antibacterial activity against Pseudomonas aeruginosa ATCC 25619 after 16 to 18 hr by Kirby-Bauer disc diffusion method.
A further assay deals with Escherichia coli. Description: Antibacterial activity against Escherichia coli ATCC 25922 after 16 to 18 hr by Kirby-Bauer disc diffusion method.

In the case of `CC[C@@H](CO)NCCN[C@@H](CC)CO` [ETHAMBUTOL], the “growth inhibition (GI)” value in assay [1] stood at 99%. Moreover, the lowest concentration to inhibit growth in assay [2] (MIC) was 3.12 µg/mL (≈ 15.3 µM).
Turning to `O=C(/C=C/c1ccc(O)cc1)c1cc2c(ccc3ccccc32)oc1=O`, in assay [1], the “growth inhibition (GI)” value turned out to be 46%. Also, the MIC – broadly, the lowest concentration found to suppress growth – with Aspergillus niger turned out to be 400 µg/mL (≈ 1170 µM); in assay [2], 50 µg/mL (≈ 146 µM); in the assay on Candida albicans, 200 µg/mL (≈ 584 µM); with Bacillus subtilis, 400 µg/mL (≈ 1170 µM); against Streptococcus pyogenes, 400 µg/mL (≈ 1170 µM); in the assay on Pseudomonas aeruginosa it was 200 µg/mL (≈ 584 µM). Also, the minimum inhibitory concentration (MIC) in the assay on Escherichia coli worked out at 200 µg/mL (≈ 584 µM).
As to `NNC(=O)c1ccncc1` [ISONIAZID], in assay [1], the “growth inhibition (GI)” value worked out at 99%. The same molecule gave an MIC in assay [2] of 0.25 µg/mL (≈ 1.82 µM).
As to `O=C(/C=C/c1ccccc1[N+](=O)[O-])c1cc2c(ccc3ccccc32)oc1=O`, the “growth inhibition (GI)” value in assay [1] is recorded as 37%. Further, the MIC against Aspergillus niger worked out at 200 µg/mL (≈ 539 µM); in assay [2], 50 µg/mL (≈ 135 µM); against Candida albicans, 400 µg/mL (≈ 1080 µM); in the assay on Bacillus subtilis it was 400 µg/mL (≈ 1080 µM); with Streptococcus pyogenes, 200 µg/mL (≈ 539 µM); with Pseudomonas aeruginosa, 400 µg/mL (≈ 1080 µM). Further, the minimal inhibitory concentration (MIC) against Escherichia coli worked out at 200 µg/mL (≈ 539 µM).
For `CN[C@@H]1[C@H](O[C@H]2[C@H](O[C@H]3[C@H](O)[C@@H](O)[C@H](N=C(N)N)[C@@H](O)[C@@H]3N=C(N)N)O[C@@H](C)[C@]2(O)C=O)O[C@@H](CO)[C@H](O)[C@H]1O` [STREPTOMYCIN], the “growth inhibition (GI)” value in assay [1] is given as 98%. The molecule further had a minimum inhibitory concentration (MIC) in assay [2] of 6.25 µg/mL (≈ 10.7 µM).
As to NYSTATIN, the minimum inhibitory concentration (MIC) against Aspergillus niger and with Candida albicans was 100 µg/mL in each case.
As for `CCn1cc(C(=O)O)c(=O)c2cc(F)c(N3CCNCC3)cc21` [NORFLOXACIN], the minimal inhibitory concentration (MIC) in the assay on Bacillus subtilis, with Streptococcus pyogenes, against Pseudomonas aeruginosa and in the assay on Escherichia coli was 10 µg/mL (≈ 31.3 µM) each time.
For the molecule `OC(Cn1cncn1)(Cn1cncn1)c1ccc(F)cc1F` [FLUCONAZOLE], the MIC against Aspergillus niger and with Candida albicans was 10 µg/mL (≈ 32.7 µM) throughout.
In the case of `O=C(/C=C/c1cccc(O)c1)c1cc2c(ccc3ccccc32)oc1=O`, in assay [1], the “growth inhibition (GI)” value was found to be 23%. In addition, the MIC in the assay on Aspergillus niger turned out to be 200 µg/mL (≈ 584 µM); in assay [2], 100 µg/mL (≈ 292 µM); against Candida albicans it was 200 µg/mL (≈ 584 µM); against Bacillus subtilis, 600 µg/mL (≈ 1750 µM); in the assay on Streptococcus pyogenes it was 200 µg/mL (≈ 584 µM); in the assay on Pseudomonas aeruginosa, 200 µg/mL (≈ 584 µM). Besides, the lowest concentration to inhibit growth in the assay with Escherichia coli (MIC) was 400 µg/mL (≈ 1170 µM).
For the molecule `CC1(C)S[C@@H]2[C@H](NC(=O)[C@H](N)c3ccccc3)C(=O)N2[C@H]1C(=O)O` [AMPICILLIN], the minimum inhibitory concentration (MIC) against Bacillus subtilis, against Streptococcus pyogenes, against Pseudomonas aeruginosa and with Escherichia coli was 100 µg/mL (≈ 286 µM) throughout.
For the molecule `O=C(/C=C/c1ccc(Cl)cc1)c1cc2c(ccc3ccccc32)oc1=O`, the “growth inhibition (GI)” value in assay [1] came out at 88%. Moreover, the minimal inhibitory concentration (MIC) with Aspergillus niger was 200 µg/mL (≈ 554 µM); in assay [2], 12.5 µg/mL (≈ 34.6 µM); against Candida albicans, 200 µg/mL (≈ 554 µM); with Bacillus subtilis it was 200 µg/mL (≈ 554 µM); in the assay with Streptococcus pyogenes, 100 µg/mL (≈ 277 µM); against Pseudomonas aeruginosa, 100 µg/mL (≈ 277 µM). In addition, in the assay with Escherichia coli, the MIC came to 100 µg/mL (≈ 277 µM).
Consider `O=C(O)c1cn(C2CC2)c2cc(N3CCNCC3)c(F)cc2c1=O` [CIPROFLOXACIN], for which the minimum inhibitory concentration (MIC) amounted to 5 µg/mL (≈ 15.1 µM) with Bacillus subtilis, 20 µg/mL (≈ 60.4 µM) against Streptococcus pyogenes, 10 µg/mL (≈ 30.2 µM) in the assay on Pseudomonas aeruginosa and 20 µg/mL (≈ 60.4 µM) against Escherichia coli.
Take `O=C(/C=C/c1ccccc1)c1cc2c(ccc3ccccc32)oc1=O`: the “growth inhibition (GI)” value in assay [1] stood at 18%. The minimal inhibitory concentration (MIC) against Aspergillus niger was 200 µg/mL (≈ 613 µM); in assay [2] it was 100 µg/mL (≈ 306 µM); against Candida albicans, 400 µg/mL (≈ 1230 µM); with Bacillus subtilis, > 600 µg/mL; with Streptococcus pyogenes, 400 µg/mL (≈ 1230 µM); in the assay with Pseudomonas aeruginosa it was 400 µg/mL (≈ 1230 µM). This molecule gave a minimal inhibitory concentration (MIC) in the assay on Escherichia coli of 400 µg/mL (≈ 1230 µM).
As for `O=C(/C=C/c1ccc([N+](=O)[O-])cc1)c1cc2c(ccc3ccccc32)oc1=O`, the “growth inhibition (GI)” value in assay [1] is on record as 54%. The minimal inhibitory concentration (MIC) is 200 µg/mL (≈ 539 µM) against Aspergillus niger; 50 µg/mL (≈ 135 µM) in assay [2]; 200 µg/mL (≈ 539 µM) in the assay with Candida albicans; 200 µg/mL (≈ 539 µM) in the assay on Bacillus subtilis; 100 µg/mL (≈ 269 µM) against Streptococcus pyogenes; 200 µg/mL (≈ 539 µM) in the assay with Pseudomonas aeruginosa. For the same molecule, in the assay on Escherichia coli, the minimal inhibitory concentration (MIC) turned out to be 100 µg/mL (≈ 269 µM).
